Measurements reported in publication PMC8149581 (Chemistry of Heterocyclic Compounds, 2021).
Converted amounts (≈) assume the structure as drawn.

tested on: influenza A/Puerto Rico/8/34 (H1N1) virus; assay type: cell-based

Row | Compound | IC50 (antiviral activity) [µg/mL]
1 | Nc1c(Br)cc([N+](=O)[O-])cc1-c1nnn(C23CC4CC(CC(C4)C2)C3)n1 [Compound 3h, 2-[2-(Adamantan-1-yl)-2 H -tetrazol-5-yl]-6-bromo-4-nitroaniline] | 15 ± 3 (≈ 35.8 µM)
2 | Nc1cc(-c2nnn(C34CC5CC(CC(C5)C3)C4)n2)ccc1O [Compound 3i, 4-[2-(Adamantan-1-yl)-2 H -tetrazol-5-yl]-2-aminophenol] | 15 ± 2 (≈ 48.2 µM)
3 | CC(N)C12CC3CC(CC(C3)C1)C2 (stereo not drawn) [Rimantadine, reference compound] | 12 ± 2 (≈ 66.9 µM)
